Data published in patent US12679836B2, “4H-pyrrolo[3,2-c]pyridin-4-one compounds” (Bayer Aktiengesellschaft, priority 2019, dated 2026).
pIC50: −log10 of the molar value. “And” between values parts separate entries of the source, which are not always exact repeats. Identical values can stand only once.

Experiments:
PC9 cells (EGFRex19del) = assay: PC9 proliferation assay (Cell Titer Glo); format: cell-based; conditions: Homo sapiens, PC-9, 72 h
Procedure: Cellular Data Description (PC9 Cells, EGFRex19del)
PC9 cells were purchased from ATCC. 400 PC9 cells per well were seeded in growth medium (DMEM, 10% FCS) in a 384-well plate (CORNING #3571). Seed reference plate for time zero determination on the same day. All plates were incubated overnight at 37° C. After 24 hours, test compound were added in 7-step dilution using HP Compound printer and incubated at 37° C. for 72 h. After 3 days, 30 μL/well CTG solution (Promega Cell Titer Glo solution; catalog # G755B and G756B) were added to each well, incubated for 30 minutes and the plate were read on PheraStar. Proliferation is calculated after subtracting time zero luminescence values from day 4 values and comparing to untreated wells. The IC50 values were determined using the four parameter fit.

Ba/F3-EGFR-insSVD cells = Ba/F3-EGFR-insSVD cells (Homo sapiens, UniProt P00533, DUP768-770, cells depend on it); assay: Ba/F3 cell survival assay (Cell Titer-Glo), EGFR-insSVD; format: cell-based; conditions: without IL-3, with 10 ng/mL EGF, 48 h; read-out: BA/F3 (insSVD) IC50
In short: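 Ba/F3 cells stably expressing WT EGFR or EGFR-insSVD from retroviral transduction were grown without IL-3 on 10 ng/mL EGF. Cells were plated at 4000 cells/well, treated with compound for 48 h at 37° C, and viability was read by CellTiter-Glo luminescence.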

[1] = target: Ba/F3-EGFR-E746_A750del C797S cells (Homo sapiens, UniProt P00533, DEL746-750/C797S, cells depend on it); assay: Ba/F3 cell survival assay, EGFR E746_A750del C797S; format: cell-based; conditions: without IL-3, without EGF, 48 h; read-out: BA/F3 (EGFR E746_A750del C797S) IC50
Procedure: 293T cells from ATCC were transfected with pBABEpuro expression constructs for mutant EGFR (V769_D770insASV, D770_N771insNPG, N771_P772insH, H773_V774insNPH, E746_A750del, L858R, D770_N771insSVD C797S, E746_A750del C797S, L858R C797S, L861Q) or mutant ERBB2 (A775_G776insYVMA) and pCL-Eco packaging vector using Fugene-6 transfection reagent from Promega. Plates were incubated at 37° C. for 48 h. Retrovirus was harvested by filtering the media supernatant through a 0.45 μm filter.
Ba/F3 cells purchased from DSMZ were grown in RPMI+10% FBS+10 ng/mL IL-3 and infected with filtered retroviral supernatant at a 1:2 dilution. Polybrene was added to a concentration of 8 μg/mL, plates were spun for 90 min, and incubated overnight at 37° C. 2 μg/mL puromycin was added to the infected cells 24 h after infection and cells were continually grown in the presence of puromycin and 10 ng/mL IL-3. Following stably expressing Ba/F3 cell lines were generated: Ba/F3-EGFR-V769_D770insASV, Ba/F3-EGFR-D770_N771insNPG, Ba/F3-EGFR-N771_P772insH, Ba/F3-EGFR-H773_V774insNPH, Ba/F3-EGFR-E746_A750del, Ba/F3-EGFR-L858R, Ba/F3-EGFR-D770_N771 insSVD C797S, Ba/F3-EGFR-E746_A750del C797S, Ba/F3-EGFR-L858R C797S, Ba/F3-EGFR L861Q and Ba/F3-ERBB2-A775_G776insYVMA (Ba/F3-vector-control).
For cell survival assays, Ba/F3 cells were grown to a density of 1-2 million cells per mL, spun down and resuspended in media without IL-3, and replated at a concentration 200,000-500,000 cells per mL. The cells ectopically expressing WT EGFR plated with 10 ng/mL Millipore Culture grade EGF and Ba/F3 cells containing mutant EGFR or Mutant ERBB2 were cultivated without EGF. The cells ectopically expressing pBABEpuro empty vector were plated with 10 ng/mL IL-3.
2 days later, cells were plated in 50 μL in a 384 well plate at a concentration of 4000 cells per well for cells assayed in the absence of IL-3 and 2000 cells per well for cells assayed in the presence of IL-3. 100 nL of compound was added to each well using a 100 nL pin head, and plates were incubated at 37° C. for 48 h.
Cell viability was measured by adding 20 μL of Cell Titer-Glo Luminescent Cell Viability Reagent diluted 1:3 in PBS. Plates were sealed with Perkin Elmer Top-Seal, inverted several times to mix, and immediately centrifuged at 1000 rpm for 2 min. Plates were incubated in low light conditions for 8-10 min and luminescence was measured.

[2] = target: T1, EGFR with insertion of SVD between D770 and N771 (EGFR ins SVD) (Homo sapiens, UniProt P00533, DUP768-770); assay: Exon20-Mutant-EGFR(D770_N771insSVD) kinase assay (TR-FRET); format: biochemical; conditions: 2 mM ATP, several values per example where printed
T1 construct: made in house; host or cells: Sf9 insect cells (baculovirus)
T1 sequence (P00533 with tags, fused parts or gaps DUP768-770): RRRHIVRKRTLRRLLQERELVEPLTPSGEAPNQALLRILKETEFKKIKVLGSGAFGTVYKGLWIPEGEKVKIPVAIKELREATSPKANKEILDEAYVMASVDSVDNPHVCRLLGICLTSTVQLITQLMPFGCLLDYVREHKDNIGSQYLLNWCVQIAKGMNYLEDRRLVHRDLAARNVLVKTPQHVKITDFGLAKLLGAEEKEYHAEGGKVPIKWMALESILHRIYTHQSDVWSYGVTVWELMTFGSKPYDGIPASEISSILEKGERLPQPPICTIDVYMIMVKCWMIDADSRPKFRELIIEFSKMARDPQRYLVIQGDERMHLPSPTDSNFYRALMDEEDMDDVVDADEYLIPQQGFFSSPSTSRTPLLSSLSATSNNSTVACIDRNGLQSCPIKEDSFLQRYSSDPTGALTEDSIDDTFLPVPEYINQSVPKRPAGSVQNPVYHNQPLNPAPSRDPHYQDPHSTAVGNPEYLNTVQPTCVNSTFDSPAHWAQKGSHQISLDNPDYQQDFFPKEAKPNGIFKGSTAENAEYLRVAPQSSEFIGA

Sequence of Ba/F3-EGFR-E746_A750del C797S cells (P00533 with tags, fused parts or gaps DEL746-750/C797S): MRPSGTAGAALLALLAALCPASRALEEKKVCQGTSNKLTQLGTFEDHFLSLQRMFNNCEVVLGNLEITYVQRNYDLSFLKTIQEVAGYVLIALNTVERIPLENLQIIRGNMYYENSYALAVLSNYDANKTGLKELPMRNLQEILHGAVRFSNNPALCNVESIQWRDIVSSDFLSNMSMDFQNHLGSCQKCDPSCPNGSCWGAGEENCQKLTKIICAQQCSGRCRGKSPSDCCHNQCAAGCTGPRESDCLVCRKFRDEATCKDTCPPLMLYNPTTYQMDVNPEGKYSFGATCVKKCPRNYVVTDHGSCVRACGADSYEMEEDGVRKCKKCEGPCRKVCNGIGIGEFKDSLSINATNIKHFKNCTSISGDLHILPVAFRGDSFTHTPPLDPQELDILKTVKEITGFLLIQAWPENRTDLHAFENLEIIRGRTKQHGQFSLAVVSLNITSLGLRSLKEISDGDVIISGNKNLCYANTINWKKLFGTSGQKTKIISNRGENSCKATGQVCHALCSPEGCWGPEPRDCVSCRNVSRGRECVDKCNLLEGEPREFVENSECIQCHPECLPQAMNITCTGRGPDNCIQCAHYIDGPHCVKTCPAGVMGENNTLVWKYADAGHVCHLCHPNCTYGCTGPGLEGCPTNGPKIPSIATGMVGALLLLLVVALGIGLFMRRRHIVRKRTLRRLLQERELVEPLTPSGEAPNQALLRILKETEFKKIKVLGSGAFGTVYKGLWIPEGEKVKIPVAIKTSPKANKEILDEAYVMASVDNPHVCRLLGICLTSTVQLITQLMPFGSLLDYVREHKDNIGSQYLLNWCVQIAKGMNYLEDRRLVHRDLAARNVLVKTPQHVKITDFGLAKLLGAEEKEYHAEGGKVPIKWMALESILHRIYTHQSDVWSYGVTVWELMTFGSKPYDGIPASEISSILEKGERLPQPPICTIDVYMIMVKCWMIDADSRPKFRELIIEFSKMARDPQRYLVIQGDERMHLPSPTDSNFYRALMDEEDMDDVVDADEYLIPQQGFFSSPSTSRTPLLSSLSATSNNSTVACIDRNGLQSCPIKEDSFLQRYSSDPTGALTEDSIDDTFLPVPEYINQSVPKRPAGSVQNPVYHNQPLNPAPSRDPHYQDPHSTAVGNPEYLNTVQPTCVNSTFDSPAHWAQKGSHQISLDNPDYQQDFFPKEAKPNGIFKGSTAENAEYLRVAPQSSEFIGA
Sequence of Ba/F3-EGFR-insSVD cells (P00533 with tags, fused parts or gaps DUP768-770): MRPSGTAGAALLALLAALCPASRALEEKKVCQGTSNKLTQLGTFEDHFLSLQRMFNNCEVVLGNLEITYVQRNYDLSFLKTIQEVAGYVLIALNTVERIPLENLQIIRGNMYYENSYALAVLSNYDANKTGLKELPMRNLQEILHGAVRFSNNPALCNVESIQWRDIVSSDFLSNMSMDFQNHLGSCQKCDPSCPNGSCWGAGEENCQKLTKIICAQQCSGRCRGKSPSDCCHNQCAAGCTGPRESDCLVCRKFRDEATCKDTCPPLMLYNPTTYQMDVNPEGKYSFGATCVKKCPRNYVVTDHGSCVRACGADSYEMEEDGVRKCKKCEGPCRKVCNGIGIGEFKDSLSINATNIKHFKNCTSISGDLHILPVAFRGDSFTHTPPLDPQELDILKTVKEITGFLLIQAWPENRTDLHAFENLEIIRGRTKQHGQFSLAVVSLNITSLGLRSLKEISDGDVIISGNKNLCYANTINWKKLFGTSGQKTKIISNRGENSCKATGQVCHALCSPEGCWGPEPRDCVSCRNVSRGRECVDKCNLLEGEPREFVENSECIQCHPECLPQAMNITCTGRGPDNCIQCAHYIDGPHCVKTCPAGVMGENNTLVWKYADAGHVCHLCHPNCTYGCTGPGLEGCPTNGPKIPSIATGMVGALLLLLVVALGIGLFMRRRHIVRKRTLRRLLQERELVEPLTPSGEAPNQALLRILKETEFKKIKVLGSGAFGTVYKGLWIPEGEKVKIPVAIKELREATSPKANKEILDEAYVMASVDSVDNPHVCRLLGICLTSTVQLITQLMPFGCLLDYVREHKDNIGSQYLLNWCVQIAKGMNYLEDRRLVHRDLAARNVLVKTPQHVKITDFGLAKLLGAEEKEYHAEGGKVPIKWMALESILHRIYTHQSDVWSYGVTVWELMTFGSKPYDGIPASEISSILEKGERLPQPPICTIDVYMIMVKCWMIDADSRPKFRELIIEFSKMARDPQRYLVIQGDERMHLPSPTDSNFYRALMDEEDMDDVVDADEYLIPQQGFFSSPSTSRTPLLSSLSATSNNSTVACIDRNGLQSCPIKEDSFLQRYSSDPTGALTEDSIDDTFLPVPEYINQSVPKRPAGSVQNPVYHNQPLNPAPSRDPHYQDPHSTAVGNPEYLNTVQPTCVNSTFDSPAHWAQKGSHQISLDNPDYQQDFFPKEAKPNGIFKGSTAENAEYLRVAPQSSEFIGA

Structure (SMILES): COc1c(Cl)cccc1Nc1c(-c2ccncc2OC[C@@H]2COCCO2)[nH]c2c1C(=O)NCC2 (single isomer, unassigned) [Example 2]
- pIC50 (PC9 cells (EGFRex19del)): 9.17
- GI50 (Ba/F3-EGFR-insSVD cells): 7.12 nM
- GI50 [1]: 0.22 nM

Structure (SMILES): COc1c(F)cccc1Nc1c(-c2ccncc2OCC2COCCO2)[nH]c2c1C(=O)NCC2 (single isomer, unassigned) [Example 5, 2-{3-[(1,4-dioxan-2-yl)methoxy]pyridin-4-yl}-3-(3-fluoro-2-methoxyanilino)-1,5,6,7-tetrahydro-4H-pyrrolo[3,2-c]pyridin-4-one]
- GI50 (Ba/F3-EGFR-insSVD cells): 9.73 nM
- GI50 [1]: 0.668 nM
- mutEGFR (D770_N771insSVD) kinase assay IC50 [2]: <0.0725 nM and 0.0851 nM and 0.112 nM and 0.114 nM and 0.12 nM and 0.124 nM and 0.136 nM

Structure (SMILES): O=C1NCCc2[nH]c(-c3ccncc3OCC3COCCO3)c(Nc3cccc(Cl)c3Cl)c21 (single isomer, unassigned) [Example 8, 3-(2,3-dichloroanilino)-2-{3-[(1,4-dioxan-2-yl)methoxy]pyridin-4-yl}-1,5,6,7-tetrahydro-4H-pyrrolo[3,2-c]pyridin-4-one]
- pIC50 (PC9 cells (EGFRex19del)): 9.13
- GI50 (Ba/F3-EGFR-insSVD cells): 8.18 nM
- GI50 [1]: 0.247 nM
- mutEGFR (D770_N771insSVD) kinase assay IC50 [2]: 0.0799 nM

Structure (SMILES): COc1c(F)cccc1Nc1c(-c2ccncc2OCC2CN(C)CCO2)[nH]c2c1C(=O)NCC2 (single isomer, unassigned) [Example 14, 3-(3-fluoro-2-methoxyanilino)-2-{3-[(4-methylmorpholin-2-yl)methoxy]pyridin-4-yl}-1,5,6,7-tetrahydro-4H-pyrrolo[3,2-c]pyridin-4-one]
- pIC50 (PC9 cells (EGFRex19del)): 8.67
- GI50 (Ba/F3-EGFR-insSVD cells): 10.5 nM
- GI50 [1]: 0.379 nM
- mutEGFR (D770_N771insSVD) kinase assay IC50 [2]: 0.13 nM

Structure (SMILES): COc1c(Cl)cccc1Nc1c(-c2ccncc2OCC2COC(C)(C)CO2)[nH]c2c1C(=O)NCC2 (single isomer, unassigned) [Example 32, 3-(3-chloro-2-methoxyanilino)-2-{3-[(5,5-dimethyl-1,4-dioxan-2-yl)methoxy]pyridin-4-yl}-1,5,6,7-tetrahydro-4H-pyrrolo[3,2-c]pyridin-4-one]
- pIC50 (PC9 cells (EGFRex19del)): 8.77
- GI50 [1]: 0.511 nM
- mutEGFR (D770_N771insSVD) kinase assay IC50 [2]: 0.127 nM

Structure (SMILES): Cc1c(Cl)cccc1Nc1c(-c2ccncc2OCC2COC(C)(C)CO2)[nH]c2c1C(=O)NCC2 (single isomer, unassigned) [Example 46, 3-(3-chloro-2-methyl-anilino)-2-[3-[(5,5-dimethyl-1,4-dioxan-2-yl)methoxy]-4-pyridyl]-1,5,6,7-tetrahydropyrrolo[3,2-c]pyridin-4-one]
- pIC50 (PC9 cells (EGFRex19del)): 8.54
- GI50 (Ba/F3-EGFR-insSVD cells): 10.1 nM
- mutEGFR (D770_N771insSVD) kinase assay IC50 [2]: 0.433 nM

Structure (SMILES): Cc1c(F)cccc1Nc1c(-c2ccncc2OCC2COCCO2)[nH]c2c1C(=O)NCC2 (single isomer, unassigned) [Example 48, 2-[3-(1,4-dioxan-2-ylmethoxy)-4-pyridyl]-3-(3-fluoro-2-methyl-anilino)-1,5,6,7-tetrahydropyrrolo[3,2-c]pyridin-4-one]
- pIC50 (PC9 cells (EGFRex19del)): 8.47
- GI50 (Ba/F3-EGFR-insSVD cells): 18.8 nM
- GI50 [1]: 0.4 nM and 0.776 nM
- mutEGFR (D770_N771insSVD) kinase assay IC50 [2]: 0.249 nM

Structure (SMILES): Cc1c(Cl)cccc1Nc1c(-c2ccncc2OC[C@H]2COCCO2)[nH]c2c1C(=O)NCC2 (single isomer, unassigned) [Example 50]
- pIC50 (PC9 cells (EGFRex19del)): 8.17
- GI50 (Ba/F3-EGFR-insSVD cells): 8.82 nM
- GI50 [1]: 0.348 nM
- mutEGFR (D770_N771insSVD) kinase assay IC50 [2]: 0.17 nM

Structure (SMILES): COc1c(F)cccc1Nc1c(-c2ccncc2OC[C@@H]2COCCN2C)[nH]c2c1C(=O)NCC2 [Example 20, 3-(3-fluoro-2-methoxyanilino)-2-(3-{[(3S)-4-methylmorpholin-3-yl]methoxy}pyridin-4-yl)-1,5,6,7-tetrahydro-4H-pyrrolo[3,2-c]pyridin-4-one]
- pIC50 (PC9 cells (EGFRex19del)): 8.57
- GI50 (Ba/F3-EGFR-insSVD cells): 8.25 nM
- GI50 [1]: 0.349 nM
- mutEGFR (D770_N771insSVD) kinase assay IC50 [2]: 0.0872 nM

Structure (SMILES): COc1c(Cl)cccc1Nc1c(-c2ccncc2OC[C@@H]2COCCN2C)[nH]c2c1C(=O)NCC2 [Example 21, 3-(3-chloro-2-methoxyanilino)-2-(3-{[(3S)-4-methylmorpholin-3-yl]methoxy}pyridin-4-yl)-1,5,6,7-tetrahydro-4H-pyrrolo[3,2-c]pyridin-4-one]
- pIC50 (PC9 cells (EGFRex19del)): 8.94
- GI50 (Ba/F3-EGFR-insSVD cells): 3.49 nM
- GI50 [1]: 0.259 nM
- mutEGFR (D770_N771insSVD) kinase assay IC50 [2]: 0.126 nM

Structure (SMILES): Cc1c(Cl)cccc1Nc1c(-c2ccncc2OC[C@@H]2CN(C)CCO2)[nH]c2c1C(=O)NCC2 [Example 42, 3-(3-chloro-2-methylanilino)-2-(3-{[(2S)-4-methylmorpholin-2-yl]methoxy}pyridin-4-yl)-1,5,6,7-tetrahydro-4H-pyrrolo[3,2-c]pyridin-4-one]
- pIC50 (PC9 cells (EGFRex19del)): 8.39
- GI50 (Ba/F3-EGFR-insSVD cells): 19.8 nM
- GI50 [1]: 0.494 nM
- mutEGFR (D770_N771insSVD) kinase assay IC50 [2]: 0.155 nM

Structure (SMILES): CCc1c(Cl)cccc1Nc1c(-c2ccncc2OC[C@@H]2CN(C)CCO2)[nH]c2c1C(=O)NCC2 [Example 56, 3-(3-chloro-2-ethylanilino)-2-(3-{[(2S)-4-methylmorpholin-2-yl]methoxy}pyridin-4-yl)-1,5,6,7-tetrahydro-4H-pyrrolo[3,2-c]pyridin-4-one]
- pIC50 (PC9 cells (EGFRex19del)): 8.76
- GI50 (Ba/F3-EGFR-insSVD cells): 11.9 nM
- GI50 [1]: 0.423 nM
- mutEGFR (D770_N771insSVD) kinase assay IC50 [2]: 0.258 nM
